Source: ChEMBL document CHEMBL5620426, “Discovery of 3-(1H-benzo[d]imidazole-2-yl)-1H-pyrazol-4 -amine derivatives as novel and potent syk inhibitors for the treatment of hematological malignancies” (Eur J Med Chem, 2023)

Assays:
[1] = target: T1, Tyrosine-protein kinase SYK (Homo sapiens, UniProt P43405); test: Inhibition of Syk (unknown origin) preincubated for 20 mins followed by 33P-gamma-ATP measured after 120 mins by HotSpot assay
Ramos = test: Inhibition of […] in serum-starved human Ramos cells incubated for 1 hr followed by anti-human IgM F(ab)2 measured after 5 mins; format: functional, cell-based
MV4-11 [2] = test: Inhibition of cell viability in human MV4-11 cells incubated for 72 hrs by Cell Titer Glo assay; format: functional, cell-based; conditions: MV4-11, 72 h
[3] = Metabolic stability in human liver microsomes assessed as intrinsic clearance at […] incubated for 60 mins in presence of NADPH by LC-MS/MS analysis; format: ADME, Microsome; conditions: read-out: CLH
[4] = Metabolic stability in human liver microsomes assessed as half life at […] incubated for 60 mins in presence of NADPH by LC-MS/MS analysis; format: ADME, Microsome
[5] = target: T1, Tyrosine-protein kinase SYK; test: Inhibition of Syk (unknown origin) assessed as enzyme activity at 2 uM preincubated for 20 mins followed by 33P-gamma-ATP measured after 120 mins by HotSpot assay relative to control; design: scale not given: the % may be the effect or the level left; conditions: time 140.0 min
[6] = Half life in fasted Sprague-Dawley rat at 1 mg/kg, iv measured for 24 hrs by LC-MS/MS analysis; format: ADME, organism-based; conditions: in vivo
[7] = C0 in fasted Sprague-Dawley rat at 1 mg/kg, iv measured for 24 hrs by LC-MS/MS analysis; format: ADME, organism-based; conditions: in vivo
[8] = AUC in fasted Sprague-Dawley rat at 1 mg/kg, iv measured for 24 hrs by LC-MS/MS analysis; format: ADME, organism-based; conditions: in vivo
[9] = Clearance in fasted Sprague-Dawley rat at 1 mg/kg, iv measured for 24 hrs by LC-MS/MS analysis; format: ADME, organism-based; conditions: in vivo
[10] = Volume of distribution at steady state in fasted Sprague-Dawley rat at 1 mg/kg, iv measured for 24 hrs by LC-MS/MS analysis; format: ADME, organism-based; conditions: in vivo, read-out: Vdss
[11] = Half life in fasted Sprague-Dawley rat at 10 mg/kg, po measured for 24 hrs by LC-MS/MS analysis; format: ADME, organism-based; conditions: in vivo
[12] = Tmax in fasted Sprague-Dawley rat at 10 mg/kg, po measured for 24 hrs by LC-MS/MS analysis; format: ADME, organism-based; conditions: in vivo
[13] = Cmax in fasted Sprague-Dawley rat at 10 mg/kg, po measured for 24 hrs by LC-MS/MS analysis; format: ADME, organism-based; conditions: in vivo
[14] = AUC in fasted Sprague-Dawley rat at 10 mg/kg, po measured for 24 hrs by LC-MS/MS analysis; format: ADME, organism-based; conditions: in vivo
[15] = Oral bioavailability in fasted Sprague-Dawley rat at 10 mg/kg measured for 24 hrs by LC-MS/MS analysis; format: ADME, organism-based; conditions: in vivo
Rec1 = test: Antiproliferative activity against human REC1 cells assessed as inhibition of cell viability incubated for 72 hrs by Cell Titer Glo assay; format: functional, cell-based; conditions: Rec1, 72 h
DOHH-2 = test: Antiproliferative activity against human DOHH-2 cells assessed as inhibition of cell viability incubated for 72 hrs by Cell Titer Glo assay; format: functional, cell-based; conditions: DOHH-2, 72 h
SU-DHL-6 = test: Antiproliferative activity against human SU-DHL-6 cells assessed as inhibition of cell viability incubated for 72 hrs by Cell Titer Glo assay; format: functional, cell-based; conditions: SU-DHL-6, 72 h
Daudi = test: Antiproliferative activity against human Daudi cells assessed as inhibition of cell viability incubated for 72 hrs by Cell Titer Glo assay; format: functional, cell-based
TMD8 = test: Antiproliferative activity against human TMD8 cells assessed as inhibition of cell viability incubated for 72 hrs by Cell Titer Glo assay; format: functional, cell-based; conditions: TMD8, 72 h
[16] = target: T1, Tyrosine-protein kinase SYK; test: Inhibition of SYK phosphorylation in human Ramos cells incubated for 2 hrs by Western blot analysis; format: cell-based; conditions: dose <= 500.0 nM
[17] = target: T1, Tyrosine-protein kinase SYK; test: Inhibition of SYK in human Ramos cells assessed as decrease in PLC-gamma-2 phosphorylation incubated for 2 hrs by Western blot analysis; format: cell-based; conditions: dose <= 500.0 nM
MV4-11 [18] = test: Antitumor activity against human MV4-11 cells xenografted in nude BALB/c mouse assessed as tumor growth inhibition at 1 mg/kg, iv qd for 21 days administered consecutively relative to control; format: functional; conditions: MV4-11, 504 h, time 21 day, read-out: TGI
[19] = Toxicity in nude BALB/c mouse xenografted with human MV4-11 cells assessed as body weight loss at 1 mg/kg, iv qd for 21 days administered consecutively; format: organism-based; conditions: in vivo, 504 h, time 21 day
[20] = Toxicity in nude BALB/c mouse xenografted with human MV4-11 cells assessed as animal mortality at 1 mg/kg, iv qd for 21 days administered consecutively; format: organism-based; conditions: in vivo, 504 h, time 21 day
[21] = Toxicity in nude BALB/c mouse xenografted with human MV4-11 cells assessed as systemic cytotoxicity at 1 mg/kg, iv qd for 21 days administered consecutively; format: organism-based; conditions: in vivo, 504 h, time 21 day

COc1cccc2[nH]c(-c3n[nH]cc3Nc3ncnc4[nH]ccc34)nc12
IC50 [1]: 8.4 nM | IC50 (Ramos): 29.8 nM | IC50 (MV4-11 [2]): 3.3 nM | microsomal CLint [3]: 14.3 µL/min/mg | half-life [4]: 1.62 h

O=C(Nc1nccc(Nc2c[nH]nc2-c2nc3ccccc3[nH]2)n1)c1ccccc1
IC50 [1]: 531 nM

Cc1cc2nc(-c3n[nH]cc3Nc3ncnc4sccc34)[nH]c2cc1C
IC50 [1]: 77.6 nM

Clc1ccc2[nH]c(-c3n[nH]cc3Nc3ncnc4[nH]ccc34)nc2c1
IC50 [1]: 172 nM

c1ccc2[nH]c(-c3n[nH]cc3NC3CCNCC3)nc2c1
Activity [5]: 82.7%

Nc1cccc(CNc2c[nH]nc2-c2nc3ccccc3[nH]2)c1
Activity [5]: 52.6%

Clc1nccc(Nc2c[nH]nc2-c2nc3ccccc3[nH]2)n1
IC50 [1]: 240 nM

COC(=O)c1cc(Nc2c[nH]nc2-c2nc3ccccc3[nH]2)nc(Cl)n1
IC50 [1]: 321 nM

CN(C)c1ccc2[nH]c(-c3n[nH]cc3Nc3ncnc4[nH]ccc34)nc2c1
IC50 [1]: 2.7 nM | IC50 (Ramos): 61.4 nM | IC50 (MV4-11 [2]): 19.7 nM | microsomal CLint [3]: 30.8 µL/min/mg | half-life [4]: 0.748 h

Nc1cc(Nc2c[nH]nc2-c2nc3ccccc3[nH]2)ncn1
IC50 [1]: 135 nM

c1cc(N2CCCCC2)c2nc(-c3n[nH]cc3Nc3ncnc4[nH]ccc34)[nH]c2c1
IC50 [1]: 58 nM

COc1ccc2[nH]c(-c3n[nH]cc3Nc3ncnc4[nH]ccc34)nc2c1
IC50 [1]: 4.9 nM | IC50 (Ramos): 41.5 nM | IC50 (MV4-11 [2]): 10.8 nM | microsomal CLint [3]: 79.9 µL/min/mg | half-life [4]: 0.288 h

Cc1cccc2[nH]c(-c3n[nH]cc3Nc3ncnc4[nH]ccc34)nc12
IC50 [1]: 5.6 nM | IC50 (Ramos): 39.2 nM | IC50 (MV4-11 [2]): 11 nM | microsomal CLint [3]: 14.2 µL/min/mg | half-life [4]: 1.63 h

Cc1ccc2[nH]c(-c3n[nH]cc3Nc3ncnc4[nH]ccc34)nc2c1
IC50 [1]: 9.3 nM

Cc1nc(Cl)cc(Nc2c[nH]nc2-c2nc3ccccc3[nH]2)n1
IC50 [1]: 1220 nM

c1ccc2[nH]c(-c3n[nH]cc3Nc3ncnc4[nH]ccc34)nc2c1
IC50 [1]: 20.5 nM

Clc1cc(Nc2c[nH]nc2-c2nc3ccccc3[nH]2)nc(N2CCOCC2)n1
Activity [5]: 91.2%

CC(C)(C)c1ccc2[nH]c(-c3n[nH]cc3Nc3ncnc4[nH]ccc34)nc2c1
IC50 [1]: 67.4 nM

c1nc(Nc2c[nH]nc2-c2nc3cc(N4CCCCC4)ccc3[nH]2)c2cc[nH]c2n1
IC50 [1]: 5.9 nM | IC50 (Ramos): 184 nM | IC50 (MV4-11 [2]): 66.4 nM

CCN(CC)c1ccc2[nH]c(-c3n[nH]cc3Nc3ncnc4[nH]ccc34)nc2c1
IC50 [1]: 8.6 nM | IC50 (Ramos): 78.5 nM | IC50 (MV4-11 [2]): 36.1 nM | microsomal CLint [3]: 75.1 µL/min/mg | half-life [4]: 0.308 h

Cc1cc2nc(-c3n[nH]cc3Nc3ncnc4[nH]ccc34)[nH]c2cc1C
IC50 [1]: 3.6 nM | IC50 (Ramos): 47.7 nM | IC50 (MV4-11 [2]): 29.8 nM | microsomal CLint [3]: 70.4 µL/min/mg | half-life [4]: 0.328 h

C[C@@H]1CN(c2ccc3[nH]c(-c4n[nH]cc4Nc4ncnc5[nH]ccc45)nc3c2)C[C@H](C)O1
IC50 [1]: 3 nM | IC50 (Ramos): 46.8 nM | IC50 (MV4-11 [2]): 4.9 nM | microsomal CLint [3]: 16.4 µL/min/mg | half-life [4]: 1.41 h

c1ccc(Nc2nccc(Nc3c[nH]nc3-c3nc4ccccc4[nH]3)n2)cc1
IC50 [1]: 687 nM

Cn1c(-c2n[nH]cc2Nc2ccnc(N)n2)nc2ccccc21
Activity [5]: 92.3%

CN1CCN(c2ccc3[nH]c(-c4n[nH]cc4Nc4ncnc5[nH]ccc45)nc3c2)CC1
IC50 [1]: 1.6 nM | IC50 (Ramos): 49.5 nM | IC50 (MV4-11 [2]): 7.9 nM | microsomal CLint [3]: 13.2 µL/min/mg | half-life [4]: 1.75 h | half-life [6]: 2.47 h | C0 at 24 h [7]: 763 ng/mL | AUC at 24 h [8]: 332 ng·h/mL | clearance [9]: 51.7 mL/min/kg | Vd [10]: 6.99 L/kg

Cc1cc2nc(-c3n[nH]cc3Nc3ccnc4[nH]ccc34)[nH]c2cc1C
IC50 [1]: 28.2 nM

c1ccc2[nH]c(-c3n[nH]cc3Nc3ccnc(NC4CCCC4)n3)nc2c1
Activity [5]: 36.3%

c1ccc2[nH]c(-c3n[nH]cc3NCc3ccncc3)nc2c1
IC50 [1]: 1780 nM

CCN(CC)CCNc1nccc(Nc2c[nH]nc2-c2nc3ccccc3[nH]2)n1
Activity [5]: 40.5%

CCNc1c[nH]nc1-c1nc2ccccc2[nH]1
IC50 [1]: 15800 nM

c1nc(Nc2c[nH]nc2-c2nc3cc(OCCN4CCOCC4)ccc3[nH]2)c2cc[nH]c2n1
IC50 [1]: 1.1 nM | IC50 (Ramos): 30.7 nM | IC50 (MV4-11 [2]): 12.4 nM | microsomal CLint [3]: 63.9 µL/min/mg | half-life [4]: 0.453 h

c1cc(N2CCCC2)c2nc(-c3n[nH]cc3Nc3ncnc4[nH]ccc34)[nH]c2c1
IC50 [1]: 14.5 nM | IC50 (Ramos): 26.8 nM | IC50 (MV4-11 [2]): 82.5 nM | microsomal CLint [3]: 78.1 µL/min/mg | half-life [4]: 0.74 h

Nc1nccc(Nc2c[nH]nc2-c2nc3ccccc3s2)n1
IC50 [1]: 163 nM

c1ccc2[nH]c(-c3n[nH]cc3Nc3ccnc(NCC4CCCCC4)n3)nc2c1
Activity [5]: 47.9%

Cc1ccc(CNc2c[nH]nc2-c2nc3ccccc3[nH]2)o1
Activity [5]: 60.5%

Fc1ccc2[nH]c(-c3n[nH]cc3Nc3ncnc4[nH]ccc34)nc2c1
IC50 [1]: 33.6 nM

COCCOc1ccc2[nH]c(-c3n[nH]cc3Nc3ncnc4[nH]ccc34)nc2c1
IC50 [1]: 5.5 nM | IC50 (Ramos): 78.9 nM | IC50 (MV4-11 [2]): 27.6 nM

CC(C)N1CCN(c2ccc3[nH]c(-c4n[nH]cc4Nc4ncnc5[nH]ccc45)nc3c2)CC1
IC50 [1]: 0.52 nM | IC50 (Ramos): 18 nM | IC50 (MV4-11 [2]): 1.5 nM | microsomal CLint [3]: 15.4 µL/min/mg | half-life [4]: 1.88 h | half-life [6]: 6.4 h | C0 at 24 h [7]: 1240 ng/mL | AUC at 24 h [8]: 514 ng·h/mL | clearance [9]: 33.3 mL/min/kg | Vd [10]: 8.93 L/kg | half-life [11]: 3.79 h | Tmax [12]: 0.833 h | Cmax [13]: 18.1 ng/mL | AUC at 24 h [14]: 78.8 ng·h/mL | bioavailability [15]: 1.5% | IC50 (Rec1): 34.3 nM | IC50 (DOHH-2): 8.68 nM | IC50 (SU-DHL-6): 216 nM | IC50 (Daudi): 719 nM | IC50 (TMD8): 10.9 nM | inhibition [16]: Dose-Dependent Effect | inhibition [17]: Dose-Dependent Effect | inhibition in vivo at 1 mg/kg (MV4-11 [18]): 99.3% | Activity [19]: Non-Toxic | Activity [20]: Non-Toxic | Activity [21]: Non-Toxic

Cc1nc(Nc2c[nH]nc2-c2nc3cc(C)c(C)cc3[nH]2)c2cc[nH]c2n1
IC50 [1]: 154 nM

CN(C)c1cccc2[nH]c(-c3n[nH]cc3Nc3ncnc4[nH]ccc34)nc12
IC50 [1]: 11.1 nM | IC50 (Ramos): 18.5 nM | IC50 (MV4-11 [2]): 20.4 nM | microsomal CLint [3]: 52.2 µL/min/mg | half-life [4]: 0.555 h

Nc1nccc(Nc2c[nH]nc2-c2nc3ccccc3[nH]2)n1
IC50 [1]: 60.1 nM

c1ccc2[nH]c(-c3n[nH]cc3Nc3ncnc4ccccc34)nc2c1
IC50 [1]: 107 nM

CN(C)CCN(C)c1ccc2[nH]c(-c3n[nH]cc3Nc3ncnc4[nH]ccc34)nc2c1
IC50 [1]: 3.2 nM | IC50 (Ramos): 35.9 nM | IC50 (MV4-11 [2]): 9.3 nM | microsomal CLint [3]: 15.9 µL/min/mg | half-life [4]: 1.45 h

c1ccc2[nH]c(-c3n[nH]cc3Nc3ncnc4c3CCC4)nc2c1
Activity [5]: 18.5%

Cc1cc2nc(-c3n[nH]cc3Nc3ncnc4c3ccn4C)[nH]c2cc1C
IC50 [1]: 21.4 nM
